Assay results from patent publication US11254663B2 (BRISTOL-MYERS SQUIBB COMPANY, priority 2019, dated 2022).
Where two headings read alike, the source gives them in different places.

Biological target: FXR (Homo sapiens (Human), UniProt Q96RI1)
Assay: transient human FXR/Gal4-luciferase reporter assay
Format: cell-based
How it was run: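 HEK293 cells stably carrying a 5×Gal4 response element–firefly luciferase reporter were transiently transfected overnight with a Gal4 DBD–human FXR LBD fusion plasmid. Compound was added in DMSO and cells were incubated overnight at 37 °C, 5% CO2. Activity was read as Steady-Glo luminescence.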

[1] = Gal4-hFXR fusion construct, HEK293 reporter cells, response relative to 8 μM GW-4064

FXR, sequence (Q96RI1 262-486): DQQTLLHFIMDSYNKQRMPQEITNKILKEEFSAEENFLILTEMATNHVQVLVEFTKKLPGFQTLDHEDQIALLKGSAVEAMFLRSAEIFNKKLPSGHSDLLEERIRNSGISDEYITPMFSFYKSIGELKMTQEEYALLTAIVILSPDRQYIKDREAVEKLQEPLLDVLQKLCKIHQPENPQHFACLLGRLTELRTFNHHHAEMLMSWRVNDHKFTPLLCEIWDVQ

CC(C)c1noc(C23CCC(CN(C(=O)C45CC(F)(C4)C5)c4cccc(-c5ccc(NS(=O)(=O)C(F)(F)F)cc5)c4)(CC2)CC3)n1 [Example 390, 3-fluoro-N-((4-(3-isopropyl-1,2,4-oxadiazol-5-yl)bicyclo[2.2.2]octan-1-yl)methyl)-N-(4′-((trifluoromethyl)sulfonamido)-[1,1′-biphenyl]-3-yl)bicyclo[1.1.1]pentane-1-carboxamide]
EC50 [1]: 0.096 µM

CC(C)c1noc(C23CCC(CN(C(=O)C45CC(F)(C4)C5)c4cccc(-c5cnc(C6CC6)nc5)c4)(CC2)CC3)n1 [Example 385, N-(3-(2-cyclopropylpyrimidin-5-yl)phenyl)-3-fluoro-N-((4-(3-isopropyl-1,2,4-oxadiazol-5-yl)bicyclo[2.2.2]octan-1-yl)methyl)bicyclo[1.1.1]pentane-1-carboxamide]
EC50 [1]: 0.035 µM

COc1ccc(-c2cccc(N(CC34CCC(c5ccc(C6(C#N)CC6)cc5)(CC3)OC4)C(=O)C34CC(F)(C3)C4)c2)cn1 [Example 350, N-((1-(4-(1-cyanocyclopropyl)phenyl)-2-oxabicyclo[2.2.2]octan-4-yl)methyl)-3-fluoro-N-(3-(6-methoxypyridin-3-yl)phenyl)bicyclo[1.1.1]pentane-1-carboxamide]
EC50 [1]: 0.296 µM

O=C(N(CC12CCC(c3noc(C(F)F)n3)(CC1)CC2)c1cccc(-c2cnc(C3CC3)nc2)c1)C12CC(F)(C1)C2 [Example 463, N-(3-(2-cyclopropylpyrimidin-5-yl)phenyl)-N-((4-(5-(difluoromethyl)-1,2,4-oxadiazol-3-yl)bicyclo[2.2.2]octan-1-yl)methyl)-3-fluorobicyclo[1.1.1]pentane-1-carboxamide]
EC50: 0.215 µM

CC(C)(C)c1nc(C23CCC(CN(C(=O)C45CC(F)(C4)C5)c4cc(-c5ccc(OC(F)F)cc5)ccn4)(CC2)CC3)no1 [Example 533, N-((4-(5-(tert-butyl)-1,2,4-oxadiazol-3-yl)bicyclo[2.2.2]octan-1-yl)methyl)-N-(4-(4-(difluoromethoxy)phenyl)pyridin-2-yl)-3-fluorobicyclo[1.1.1]pentane-1-carboxamide]
EC50: 0.026 µM

CC(C)(C)c1nc(C23CCC(CN(c4cccc(-c5ccc(NS(C)(=O)=O)cc5)c4)C(=O)[C@H]4C[C@@](C)(O)C4)(CC2)CC3)no1 [Example 512, (cis)-N-((4-(5-(tert-butyl)-1,2,4-oxadiazol-3-yl)bicyclo[2.2.2]octan-1-yl)methyl)-3-hydroxy-3-methyl-N-(4′-(methylsulfonamido)-[1,1′-biphenyl]-3-yl)cyclobutane-1-carboxamide]
EC50 [1]: 0.909 µM

CC(F)(F)c1nc(C23CCC(CN(C(=O)C4CC(O)(C(F)(F)F)C4)c4cccc(-c5ccc(C(O)C(F)F)cc5)c4)(CC2)CC3)no1 (single isomer, unassigned) [Example 628 (second eluting isomer)]
EC50 [1]: 0.128 µM

CC1(c2nc(C34CCC(CN(C(=O)C56CC(F)(C5)C6)c5cccc(-c6cnc(C7CC7)nc6)c5)(CC3)CC4)no2)CC1 [Example 403, N-(3-(2-cyclopropylpyrimidin-5-yl)phenyl)-3-fluoro-N-((4-(5-(1-methylcyclopropyl)-1,2,4-oxadiazol-3-yl)bicyclo[2.2.2]octan-1-yl)methyl)bicyclo[1.1.1]pentane-1-carboxamide]
EC50 [1]: 0.1 µM

CCOc1ncc(-c2cccc(N(CC34CCC(c5ncc(OC)cn5)(CC3)CC4)C(=O)C34CC(F)(C3)C4)c2)cn1 [Example 552, N-(3-(2-ethoxypyrimidin-5-yl)phenyl)-3-fluoro-N-((4-(5-methoxypyrimidin-2-yl)bicyclo[2.2.2]octan-1-yl)methyl)bicyclo[1.1.1]pentane-1-carboxamide]
EC50 [1]: 0.359 µM

Cc1nc2ccc(-c3cccc(N(CC45CCC(c6noc(C(C)C)n6)(CC4)CC5)C(=O)C45CC(F)(C4)C5)c3)cc2s1 [Example 433, 3-fluoro-N-((4-(5-isopropyl-1,2,4-oxadiazol-3-yl)bicyclo[2.2.2]octan-1-yl)methyl)-N-(3-(2-methylbenzo[d]thiazol-6-yl)phenyl)bicyclo[1.1.1]pentane-1-carboxamide]
EC50 [1]: 0.037 µM

CC(C)(O)c1ccc(-c2cccc(N(CC34CCC(c5noc(C(C)(C)F)n5)(CC3)CC4)C(=O)NC3CCC(O)(C(F)(F)F)CC3)c2)cc1 (single isomer, unassigned) [Example 600, 1-((4-(5-(2-fluoropropan-2-yl)-1,2,4-oxadiazol-3-yl)bicyclo[2.2.2]octan-1-yl)methyl)-3-(4-hydroxy-4-(trifluoromethyl)cyclohexyl)-1-(4′-(2-hydroxypropan-2-yl)-[1,1′-biphenyl]-3-yl) urea]
EC50 [1]: 0.016 µM

CC(C)(C#N)Oc1ccc(-c2ccnc(N(CC34CCC(c5ccc(C(C)(F)F)cn5)(CC3)CC4)C(=O)OC(C)(C)C(F)(F)F)c2)cc1 [Example 606, 1,1,1-trifluoro-2-methylpropan-2-yl (4-(4-((2-cyanopropan-2-yl)oxy)phenyl)pyridin-2-yl)((4-(5-(1,1-difluoroethyl)pyridin-2-yl)bicyclo[2.2.2]octan-1-yl)methyl)carbamate]
EC50 [1]: 0.095 µM

CC(C)OC(=O)NC12CCC(CN(C(=O)C3CC(O)(C(F)(F)F)C3)c3cccc(-c4ccc(C(C)(C)O)cc4)c3)(CC1)CC2 (stereo not drawn) [Example 602, Isopropyl (4-(((cis)-3-hydroxy-N-(4′-(2-hydroxypropan-2-yl)-[1,1′-biphenyl]-3-yl)-3-(trifluoromethyl)cyclobutane-1-carboxamido)methyl)bicyclo[2.2.2]octan-1-yl)carbamate]
EC50 [1]: 0.142 µM

CCOc1ncc(-c2cccc(N(CC34CCC(c5nc(C(C)(C)C)no5)(CC3)CC4)C(=O)C34CC(NC(=O)OC(C)(C)C)(C3)C4)c2)cn1 [Example 505, tert-butyl (3-(((4-(3-(tert-butyl)-1,2,4-oxadiazol-5-yl)bicyclo[2.2.2]octan-1-yl)methyl) (3-(2-ethoxypyrimidin-5-yl)phenyl)carbamoyl)bicyclo[1.1.1]pentan-1-yl)carbamate]
EC50: 0.621 µM

CC(C)(O)c1ccc(-c2cccc(N(CC34CCC(c5noc(C(C)(C)F)n5)(CC3)CC4)C(=O)NCCN3CCOCC3)c2)cc1 [Example 649, 1-((4-(5-(2-fluoropropan-2-yl)-1,2,4-oxadiazol-3-yl)bicyclo[2.2.2]octan-1-yl)methyl)-1-(4′-(2-hydroxypropan-2-yl)-[1,1′-biphenyl]-3-yl)-3-(2-morpholinoethyl)urea]
EC50: 0.6 µM

O=C(N(CC12CCC(c3nc(C4CC4)no3)(CC1)CC2)c1cccc(-c2ccc3nncn3c2)c1)C12CC(F)(C1)C2 [Example 323, N-(3-([1,2,4]triazolo[4,3-a]pyridin-6-yl)phenyl)-N-((4-(3-cyclopropyl-1,2,4-oxadiazol-5-yl)bicyclo[2.2.2]octan-1-yl)methyl)-3-fluorobicyclo[1.1.1]pentane-1-carboxamide]
EC50 [1]: 1.63 µM

CC(C)(O)c1ccc(-c2cc(N(CC34CCC(c5noc(C(C)(C)F)n5)(CC3)CC4)C(=O)OC(C)(C)C(F)(F)F)ncc2F)cc1 [Example 620, 1,1,1-trifluoro-2-methylpropan-2-yl(5-fluoro-4-(4-(2-hydroxypropan-2-yl)phenyl)pyridin-2-yl)((4-(5-(2-fluoropropan-2-yl)-1,2,4-oxadiazol-3-yl)bicyclo[2.2.2]octan-1-yl)methyl) carbamate]
EC50 [1]: 0.029 µM

CCOc1ccc(-c2cccc(N(CC34CCC(c5noc(C(C)C)n5)(CC3)CC4)C(=O)C34CC(F)(C3)C4)c2)cn1 [Example 432, N-(3-(6-ethoxypyridin-3-yl)phenyl)-3-fluoro-N-((4-(5-isopropyl-1,2,4-oxadiazol-3-yl)bicyclo[2.2.2]octan-1-yl)methyl)bicyclo[1.1.1]pentane-1-carboxamide]
EC50 [1]: 0.051 µM

O=C(N(CC12CCC(c3nc(C4CC4)no3)(CC1)CC2)c1cccc(-c2ccn3cnnc3c2)c1)C12CC(F)(C1)C2 [Example 307, N-(3-([1,2,4]triazolo[4,3-a]pyridin-7-yl)phenyl)-N-((4-(3-cyclopropyl-1,2,4-oxadiazol-5-yl)bicyclo[2.2.2]octan-1-yl)methyl)-3-fluorobicyclo[1.1.1]pentane-1-carboxamide]
EC50 [1]: 0.832 µM

CCOc1ncc(-c2cncc(N(CC34CCC(c5nc(C(C)(C)C)no5)(CC3)CC4)C(=O)C34CC(F)(C3)C4)c2)cn1 [Example 472, N-((4-(3-(tert-butyl)-1,2,4-oxadiazol-5-yl)bicyclo[2.2.2]octan-1-yl)methyl)-N-(5-(2-ethoxypyrimidin-5-yl)pyridin-3-yl)-3-fluorobicyclo[1.1.1]pentane-1-carboxamide]
EC50 [1]: 0.758 µM

COc1cnc(-c2cccc(N(CC34CCC(c5ccc(C(F)(F)F)cn5)(CC3)CC4)C(=O)C34CC(F)(C3)C4)c2)nc1 [Example 500, 3-fluoro-N-(3-(5-methoxypyrimidin-2-yl)phenyl)-N-((4-(5-(trifluoromethyl)pyridin-2-yl)bicyclo[2.2.2]octan-1-yl)methyl)bicyclo[1.1.1]pentane-1-carboxamide]
EC50: 0.81 µM

O=C(N(CC12CCC(c3nc(C(F)F)no3)(CC1)CC2)c1cccc(-c2cnc(C3CC3)nc2)c1)C12CC(F)(C1)C2 [Example 466, N-(3-(2-cyclopropylpyrimidin-5-yl)phenyl)-N-((4-(3-(difluoromethyl)-1,2,4-oxadiazol-5-yl)bicyclo[2.2.2]octan-1-yl)methyl)-3-fluorobicyclo[1.1.1]pentane-1-carboxamide]
EC50 [1]: 0.349 µM

CCOc1ncc(-c2cccc(N(CC34CCC(c5nc(C(F)F)no5)(CC3)CC4)C(=O)C34CC(F)(C3)C4)c2)cn1 [Example 470, N-((4-(3-(difluoromethyl)-1,2,4-oxadiazol-5-yl)bicyclo[2.2.2]octan-1-yl)methyl)-N-(3-(2-ethoxypyrimidin-5-yl)phenyl)-3-fluorobicyclo[1.1.1]pentane-1-carboxamide]
EC50: 0.164 µM

O=C(N(CC12CCC(c3ccc(C(F)(F)F)cn3)(CC1)CC2)c1cccc(-c2ccc(OC(F)F)cc2)c1)C12CC(F)(C1)C2 [Example 493, N-(4′-(difluoromethoxy)-[1,1′-biphenyl]-3-yl)-3-fluoro-N-((4-(5-(trifluoromethyl)pyridin-2-yl)bicyclo[2.2.2]octan-1-yl)methyl)bicyclo[1.1.1]pentane-1-carboxamide]
EC50: 0.552 µM
